Common to all, as to assay type: in vivo
The subject of test [1] is Avena fatua (AVEFA). Description: Example B post-emergence herbicidal activity, glasshouse pot test. To be noted: 312 h, rate 1000 g/ha, evaluated after 13 days, read-out: herbicidal damage AVEFA (100=total damage to plant; 0=no damage to plant). Here is the method:
(§1) Seeds of a variety of test species were sown in standard soil in pots. After cultivation for one day (pre-emergence) or after 8 days cultivation (post-emergence) under controlled conditions in a glasshouse (at 24/16° C., day/night; 14 hours light; 65% humidity), the plants were sprayed with an aqueous spray solution derived from the formulation of the technical active ingredient in acetone/water (50:50) solution containing 0.5% Tween 20 (polyoxyethelyene sorbitan monolaurate, CAS RN 9005-64-5). The test plants were then grown in a glasshouse under controlled conditions in a glasshouse (at 24/16° C., day/night; 14 hours light; 65% humidity) and watered twice daily. After 13 days for pre and post-emergence, the test was evaluated (100=total damage to plant; 0=no damage to plant). Alopecurus myosuroides (ALOMY), Avena fatua (AVEFA), Setaria faberi (SETFA), Echinochloa crus-galli (ECHCG), Solanum nigrum (SOLNI) and Amaranthus retroflexus (AMARE) Post-Emergence Activity

Test [2] deals with Echinochloa crus-galli (ECHCG). The test is described as above. To be noted: 312 h, rate 1000 g/ha, evaluated after 13 days, read-out: herbicidal damage ECHCG (100=total damage to plant; 0=no damage to plant). Here is the method:
as §1

For test [3], the system named is Solanum nigrum (SOLNI). The test is described as above. To be noted: 312 h, rate 1000 g/ha, evaluated after 13 days, read-out: herbicidal damage SOLNI (100=total damage to plant; 0=no damage to plant). Here is the method: as §1
In test [4] the test system is Amaranthus retroflexus (AMARE). Described as above. The following applies: 312 h, rate 1000 g/ha, evaluated after 13 days, read-out: herbicidal damage AMARE (100=total damage to plant; 0=no damage to plant). Here is the method:
as §1

The subject of test [5] is Alopecurus myosuroides (ALOMY). Described as above. The following applies: 312 h, rate 1000 g/ha, evaluated after 13 days, read-out: herbicidal damage ALOMY (100=total damage to plant; 0=no damage to plant). Here is the method:
as §1

For test [6], the system named is Setaria faberi (SETFA). The description is as above. The following applies: 312 h, rate 1000 g/ha, evaluated after 13 days, read-out: herbicidal damage SETFA (100=total damage to plant; 0=no damage to plant). Here is the method:
as §1

The test system of test [7] is Avena fatua (AVEFA). Description: Example B pre-emergence herbicidal activity, glasshouse pot test. The following applies: 312 h, rate 1000 g/ha, evaluated after 13 days, read-out: herbicidal damage AVEFA (100=total damage to plant; 0=no damage to plant). Here is the method:
as §1, with “Pre-Emergence” for “Post-Emergence”

Test [8] has as its system Echinochloa crus-galli (ECHCG). The test is described as above. To be noted: 312 h, rate 1000 g/ha, evaluated after 13 days, read-out: herbicidal damage ECHCG (100=total damage to plant; 0=no damage to plant). Here is the method: as §1, with “Pre-Emergence” for “Post-Emergence”
For test [9], the system named is Solanum nigrum (SOLNI). The description is as above. To be noted: 312 h, rate 1000 g/ha, evaluated after 13 days, read-out: herbicidal damage SOLNI (100=total damage to plant; 0=no damage to plant). Here is the method:
as §1, with “Pre-Emergence” for “Post-Emergence”

Test [10] concerns Amaranthus retroflexus (AMARE). Described as above. The following applies: 312 h, rate 1000 g/ha, evaluated after 13 days, read-out: herbicidal damage AMARE (100=total damage to plant; 0=no damage to plant). Here is the method:
as §1, with “Pre-Emergence” for “Post-Emergence”

Test [11] deals with Alopecurus myosuroides (ALOMY). The description is as above. The following applies: 312 h, rate 1000 g/ha, evaluated after 13 days, read-out: herbicidal damage ALOMY (100=total damage to plant; 0=no damage to plant). Here is the method:
as §1, with “Pre-Emergence” for “Post-Emergence”

The test system of test [12] is Setaria faberi (SETFA). The description is as above. To be noted: 312 h, rate 1000 g/ha, evaluated after 13 days, read-out: herbicidal damage SETFA (100=total damage to plant; 0=no damage to plant). Here is the method: as §1, with “Pre-Emergence” for “Post-Emergence”

As to `Cc1ccc(-c2ccc(Cl)cc2)cc1C1=C(O)CC(CC2OCC3(CC3)CO2)CC1=O` (stereo not drawn) [Compound A-65], the pest or weed control at 1000 g/ha with Avena fatua (AVEFA) [1] turned out to be 20%; in [2] it was 70%; in the test on Solanum nigrum (SOLNI) [3], 60%; in test [4], 90%; in test [5] it was 40%; with Setaria faberi (SETFA) [6], 70%. The pest or weed control at 1000 g/ha was found to be 0% with Avena fatua (AVEFA) [7]; 70% in [8]; 20% in the test on Solanum nigrum (SOLNI) [9]; 30% in [10]; 20% in test [11]; 60% in the test on Setaria faberi (SETFA) [12].
Turning to `Cc1ccc(-c2ccc(Cl)cc2)cc1C1=C(O)CC(CC2OCCCO2)CC1=O` (stereo not drawn) [Compound A-55, 2-(4′-Chloro-4-methylbiphenyl-3-yl)-5-[1,3]dioxan-2-ylmethylcyclohexane-1,3-dione], the pest or weed control at 1000 g/ha in the test with Avena fatua (AVEFA) [1] came out at 90%; in test [2] it was 100%; with Solanum nigrum (SOLNI) [3], 0%; in [4], 0%; in test [5], 90%; with Setaria faberi (SETFA) [6] it was 100%. In addition, the pest or weed control at 1000 g/ha worked out at 20% with Avena fatua (AVEFA) [7]; 60% in test [8]; 0% with Solanum nigrum (SOLNI) [9]; 0% in test [10]; 0% in test [11]; 60% with Setaria faberi (SETFA) [12].
In the case of `Cc1ccc(-c2ccc(Cl)cc2)cc1C1=C(O)CC(CC2OCC(C3CCOCC3)O2)CC1=O` (stereo not drawn) [Compound A-59], the pest or weed control at 1000 g/ha came out at 20% in the test with Avena fatua (AVEFA) [1]; 90% in test [2]; 0% with Solanum nigrum (SOLNI) [3]; 0% in test [4]; 70% in test [5]; 90% with Setaria faberi (SETFA) [6]. In addition, the pest or weed control at 1000 g/ha turned out to be 0% in the test with Avena fatua (AVEFA) [7]; 0% in [8]; 0% in the test with Solanum nigrum (SOLNI) [9]; 0% in [10]; 20% in test [11]; 60% in the test with Setaria faberi (SETFA) [12].
Consider `COCC1COC(CC2CC(=O)C(c3cc(-c4ccc(Cl)cc4)ccc3C)=C(O)C2)O1` (stereo not drawn) [Compound A-63], for which the pest or weed control at 1000 g/ha in the test on Avena fatua (AVEFA) [1] was determined as 90%; in test [2], 100%; in the test with Solanum nigrum (SOLNI) [3], 0%; in [4], 0%; in test [5], 90%; with Setaria faberi (SETFA) [6], 100%. Besides, the pest or weed control at 1000 g/ha with Avena fatua (AVEFA) [7] was determined as 0%; in [8] it was 20%; in the test on Solanum nigrum (SOLNI) [9] it was 0%; in test [10], 20%; in test [11], 0%; with Setaria faberi (SETFA) [12], 70%.
As to `Cc1ccc(-c2ccc(F)c(F)c2)cc1C1=C(O)CC(CC2CCOCC2)CC1=O` (stereo not drawn) [Compound A-40], the pest or weed control at 1000 g/ha in the test on Avena fatua (AVEFA) [1] came to 70%; in [2] it was 100%; in the test with Solanum nigrum (SOLNI) [3] it was 0%; in test [4], 30%; in test [5], 70%; with Setaria faberi (SETFA) [6], 90%. The pest or weed control at 1000 g/ha is 0% in the test on Avena fatua (AVEFA) [7]; 30% in [8]; 0% in the test on Solanum nigrum (SOLNI) [9]; 0% in [10]; 0% in [11]; 0% in the test with Setaria faberi (SETFA) [12].
